Measured values taken from publication PMC12064607 (Clinical Pharmacokinetics, 2025).
Like-named read-outs stand apart in the source and are kept apart here.

Assays:
SARS-CoV-2 variants [1] = assay: microbe, parasite or virus in culture
SARS-CoV-2 variants [2] = conditions: cited from earlier work
[3] = Severe acute respiratory syndrome coronavirus 2, read-out: highest EC50 reported in the literature, corrected for plasma protein binding
[4] = Severe acute respiratory syndrome coronavirus 2, read-out: highest EC90 reported in the literature, corrected for plasma protein binding
[5] = Severe acute respiratory syndrome coronavirus 2, read-out: lowest EC50 reported in the literature, corrected for plasma protein binding
[6] = Severe acute respiratory syndrome coronavirus 2, read-out: lowest EC90 reported in the literature, corrected for plasma protein binding

Row | SMILES | EC50 (SARS-CoV-2 variants [1]; [3]) [nM] | EC90 (SARS-CoV-2 variants [1]; [4]) [nM] | EC50 (SARS-CoV-2 variants [1]; [5]) [nM] | EC90 (SARS-CoV-2 variants [1]; [6]) [nM] | EC50 (SARS-CoV-2 variants [2]) [nM] | EC90 (SARS-CoV-2 variants [2]) [nM]
1 | CCC(CC)COC(=O)[C@H](C)N[P@](=O)(OC[C@H]1O[C@@](C#N)(c2ccc3c(N)ncnn23)[C@H](O)[C@@H]1O)Oc1ccccc1 [Remdesivir, reference compound] | 14200 | 25800 | 8 | 180 | 1 to 1700 | 22 to 3100
2 | N#C[C@@]1(c2ccc3c(N)ncnn23)O[C@H](CO)[C@@H](O)[C@H]1O [GS-441524] | 5710 | 3980 | 80 | 720 | 80 to 5600 | 710 to 3900
